Data: ChEMBL document CHEMBL1142838, “Design and synthesis of phthalimide-type histone deacetylase inhibitors” (Bioorg Med Chem Lett, 2005)

These compounds were tested against Histone deacetylase 4 (Homo sapiens, UniProt P56524).
Chain of Histone deacetylase 4 (P56524 whole entry): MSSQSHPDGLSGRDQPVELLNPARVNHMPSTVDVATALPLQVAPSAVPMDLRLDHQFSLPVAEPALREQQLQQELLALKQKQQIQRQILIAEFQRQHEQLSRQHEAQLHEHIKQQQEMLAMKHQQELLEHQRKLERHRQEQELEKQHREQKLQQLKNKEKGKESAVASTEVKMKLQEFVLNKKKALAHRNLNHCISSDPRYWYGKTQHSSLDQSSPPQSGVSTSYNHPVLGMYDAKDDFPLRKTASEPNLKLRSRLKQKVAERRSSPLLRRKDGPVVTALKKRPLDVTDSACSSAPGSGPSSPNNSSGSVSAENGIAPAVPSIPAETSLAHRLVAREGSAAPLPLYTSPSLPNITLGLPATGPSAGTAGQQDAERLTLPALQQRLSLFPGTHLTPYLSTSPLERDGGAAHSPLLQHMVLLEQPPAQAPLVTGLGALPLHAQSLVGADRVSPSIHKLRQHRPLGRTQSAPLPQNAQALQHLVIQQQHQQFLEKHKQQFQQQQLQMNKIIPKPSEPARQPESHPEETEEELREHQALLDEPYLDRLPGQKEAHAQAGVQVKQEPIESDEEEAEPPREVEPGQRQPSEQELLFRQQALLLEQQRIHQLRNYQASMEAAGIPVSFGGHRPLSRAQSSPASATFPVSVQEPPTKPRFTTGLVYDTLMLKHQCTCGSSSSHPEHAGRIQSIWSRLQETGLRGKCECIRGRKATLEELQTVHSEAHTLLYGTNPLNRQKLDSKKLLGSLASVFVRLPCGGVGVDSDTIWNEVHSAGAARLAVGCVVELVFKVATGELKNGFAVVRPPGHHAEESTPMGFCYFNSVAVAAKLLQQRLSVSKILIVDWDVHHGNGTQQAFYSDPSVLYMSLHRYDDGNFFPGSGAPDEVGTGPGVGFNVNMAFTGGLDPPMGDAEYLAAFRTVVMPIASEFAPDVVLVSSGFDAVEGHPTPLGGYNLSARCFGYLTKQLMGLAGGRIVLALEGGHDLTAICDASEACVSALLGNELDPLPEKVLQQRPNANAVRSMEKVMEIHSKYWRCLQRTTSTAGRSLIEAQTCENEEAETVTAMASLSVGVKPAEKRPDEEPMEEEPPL

`O=C(/C=C/c1ccc2c(c1)C(=O)N(Cc1ccccc1)C2=O)NO` was tested. Which IC50 did it give?
The IC50 was 358 nM.

These compounds were tested against T1, Protein deacetylase HDAC6 (Homo sapiens, UniProt Q9UBN7).
T1 sequence (Q9UBN7 whole entry): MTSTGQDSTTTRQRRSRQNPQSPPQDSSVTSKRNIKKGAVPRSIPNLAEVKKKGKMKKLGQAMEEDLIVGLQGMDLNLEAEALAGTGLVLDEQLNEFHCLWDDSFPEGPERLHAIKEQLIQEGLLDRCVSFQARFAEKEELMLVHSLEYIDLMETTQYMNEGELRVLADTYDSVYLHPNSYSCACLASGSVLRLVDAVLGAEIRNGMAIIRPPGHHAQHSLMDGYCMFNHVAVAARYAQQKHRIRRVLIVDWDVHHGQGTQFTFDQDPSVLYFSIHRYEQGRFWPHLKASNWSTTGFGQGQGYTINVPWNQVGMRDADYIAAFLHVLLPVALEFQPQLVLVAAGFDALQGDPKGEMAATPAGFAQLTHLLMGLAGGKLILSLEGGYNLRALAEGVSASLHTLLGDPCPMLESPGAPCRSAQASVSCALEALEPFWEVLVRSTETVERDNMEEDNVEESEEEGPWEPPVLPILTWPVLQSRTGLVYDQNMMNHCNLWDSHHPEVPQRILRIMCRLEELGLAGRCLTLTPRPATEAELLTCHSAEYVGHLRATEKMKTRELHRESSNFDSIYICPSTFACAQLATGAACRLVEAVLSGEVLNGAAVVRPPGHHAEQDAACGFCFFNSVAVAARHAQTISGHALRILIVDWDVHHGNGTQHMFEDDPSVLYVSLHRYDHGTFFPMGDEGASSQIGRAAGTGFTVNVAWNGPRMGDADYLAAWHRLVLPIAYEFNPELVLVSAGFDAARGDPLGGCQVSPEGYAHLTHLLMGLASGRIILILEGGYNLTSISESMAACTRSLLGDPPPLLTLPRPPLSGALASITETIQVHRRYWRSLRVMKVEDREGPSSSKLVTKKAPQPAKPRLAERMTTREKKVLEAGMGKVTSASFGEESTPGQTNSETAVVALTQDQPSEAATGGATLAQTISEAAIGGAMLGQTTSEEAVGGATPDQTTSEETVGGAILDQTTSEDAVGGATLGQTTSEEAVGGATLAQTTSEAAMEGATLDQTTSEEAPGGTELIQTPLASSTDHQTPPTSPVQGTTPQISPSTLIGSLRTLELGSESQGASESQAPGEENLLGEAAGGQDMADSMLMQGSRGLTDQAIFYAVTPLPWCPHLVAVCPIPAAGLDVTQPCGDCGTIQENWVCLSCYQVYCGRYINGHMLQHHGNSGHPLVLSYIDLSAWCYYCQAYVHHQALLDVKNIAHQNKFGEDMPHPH

For `O=C(/C=C/c1ccc2c(c1)C(=O)N(Cc1ccccc1)C2=O)NO`, which IC50 is on record?
Its IC50 is 709 nM.

The compounds below were run against Histone deacetylase 1 (Homo sapiens, UniProt Q13547).
Chain of Histone deacetylase 1 (Q13547 whole entry): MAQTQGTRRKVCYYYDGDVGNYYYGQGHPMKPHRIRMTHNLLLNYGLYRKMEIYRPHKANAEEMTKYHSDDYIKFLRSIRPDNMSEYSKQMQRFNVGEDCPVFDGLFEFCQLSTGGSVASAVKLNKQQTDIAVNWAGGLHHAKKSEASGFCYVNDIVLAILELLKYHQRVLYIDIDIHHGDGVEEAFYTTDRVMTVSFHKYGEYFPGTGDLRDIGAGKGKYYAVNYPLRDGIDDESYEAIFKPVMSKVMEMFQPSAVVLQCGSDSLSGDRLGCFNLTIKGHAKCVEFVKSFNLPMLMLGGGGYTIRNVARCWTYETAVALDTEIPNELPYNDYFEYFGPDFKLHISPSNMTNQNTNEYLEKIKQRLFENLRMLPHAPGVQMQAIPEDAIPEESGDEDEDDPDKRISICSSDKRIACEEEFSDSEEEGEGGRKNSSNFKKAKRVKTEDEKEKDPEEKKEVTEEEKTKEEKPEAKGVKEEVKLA

`O=C(/C=C/c1ccc2c(c1)C(=O)N(Cc1ccccc1)C2=O)NO` was tested. Which IC50 did it give?
Its IC50 is 572 nM.

Each compound was assayed against Histone deacetylase (assay: Effective concentration for inhibition of histone deacetylase).
Format: protein assay, Homo sapiens

How did the EC50 turn out when `C[C@@H](c1ccccc1)N1C(=O)c2ccc(/C=C/C(=O)NO)cc2C1=O` was run?
The EC50 was 250 nM.

Which EC50 does the source give for `O=C(/C=C/c1ccc2c(c1)C(=O)N(c1ccccc1)C2=O)NO` here?
The EC50 was 2080 nM.

Which EC50 does the source give for `O=C(NO)c1ccc2c(c1)C(=O)N(Cc1ccccc1)C2=O` here?
Its EC50 is 4160 nM.

`O=C(/C=C/c1ccc2c(c1)C(=O)N([C@H](COC(=O)c1ccccc1)c1ccccc1)C2=O)NO` was tested. Which EC50 did it give?
The EC50 was 763 nM.

For `O=C(/C=C/c1ccc2c(c1)C(=O)N([C@@H](COC(=O)c1ccccc1)c1ccccc1)C2=O)NO`, which EC50 is on record?
Its EC50 is 3790 nM.

Which EC50 does the source give for `C[C@H](c1ccccc1)N1C(=O)c2ccc(/C=C/C(=O)NO)cc2C1=O` here?
Its EC50 is 291 nM.

Which EC50 does the source give for `O=C(/C=C/c1ccc2c(c1)C(=O)N(CCc1ccccc1)C2=O)NO` here?
The EC50 was 177 nM.

Which EC50 does the source give for `Cc1ccc(CN2C(=O)c3ccc(/C=C/C(=O)NO)cc3C2=O)cc1` here?
Its EC50 is 474 nM.

With `O=C(NO)c1ccc2c(c1)C(=O)N(CCc1ccccc1)C2=O` as the compound, how does the EC50 read?
The EC50 was 6630 nM.

Which EC50 does the source give for `O=C(NO)c1ccc2c(c1)C(=O)N(c1ccccc1)C2=O` here?
Its EC50 is 125000 nM.

For `O=C(/C=C/c1ccc2c(c1)C(=O)N(Cc1ccccc1)C2=O)NO`, which EC50 is on record?
The EC50 was 148 nM.

For `O=C(/C=C/c1ccc2c(c1)C(=O)N(CC(c1ccccc1)c1ccccc1)C2=O)NO`, which EC50 is on record?
Its EC50 is 7890 nM.

With `O=C(CCc1ccc2c(c1)C(=O)N(Cc1ccccc1)C2=O)NO` as the compound, how does the EC50 read?
Its EC50 is 407 nM.

Which EC50 does the source give for `O=C(/C=C/c1ccc2c(c1)C(=O)N(C(c1ccccc1)c1ccccc1)C2=O)NO` here?
The EC50 was 2090 nM.

For `COc1ccc(CN2C(=O)c3ccc(/C=C/C(=O)NO)cc3C2=O)cc1`, which EC50 is on record?
The EC50 was 186 nM.
